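Results reflect a 48-hour exposure of cells in 96-well plates to compound at five concentrations. Definition used: TGI = concentration required for complete inhibition of growth.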

Holding throughout (assay): NCI anticancer screen, dose series, 48 h
Assay [1] has as its system M19-MEL melanoma.
In assay [2] the test system is UO-31 renal.
Assay [3] concerns UACC-257 melanoma.
The subject of assay [4] is CCRF-CEM leukemia.
The test system of assay [5] is 786-0 renal.
Assay [6] has as its system SW-620 colon.
Assay [7] deals with DLD-1 colon.
For assay [8], the system named is DU-145 prostate.
Assay [9] relates to T-47D breast.
Assay [10] has as its system PC-3 prostate.
Assay [11] concerns KM20L2 colon.

For the compound `Cc1cc([N+](=O)[O-])c(C)c2c1[nH]c1ccc(Cl)cc12`, the TGI in [1], in [2], in assay [3], in [4], in assay [5] and in [6] was > 100 µM in each case.

Regarding `CCOC(=O)C1C(c2ccc(Cl)cc2Cl)NC(c2ccc(C)cc2)C(C(=O)OC)S1(=O)=O` (stereo unspecified), the TGI in assay [1], in assay [2], in assay [7], in assay [3], in [4] and in assay [5] was > 100 µM each time. Also, the TGI in assay [6] is > 100 µM.

For the compound `COC(=O)c1ccccc1C1CN=NC12Cc1c(ccc(C)c1C)C2=O` (stereo unspecified), the TGI in assay [8], in assay [9], in assay [2], in assay [3], in assay [10] and in assay [4] was > 100 µM each time. The TGI in assay [5] and in [6] was > 100 µM throughout.

Consider `O=C(COc1ccc(OCC(=O)N/N=C/c2ccc(-c3ccc(Cl)cc3Cl)o2)c(Cl)c1)N/N=C/c1ccc(-c2ccc(Cl)cc2Cl)o1`, for which the TGI in assay [8] was > 100 µM; in assay [9] it was > 100 µM; in assay [2] it was > 100 µM; in assay [3], > 100 µM; in [10], > 100 µM; in [4], 34.8 µM. Besides, the TGI in [5] and in assay [6] was > 100 µM each time.

For `CN(O)C(=O)/C=C/c1ccc(OCc2cccc(Cl)c2)cc1`, the TGI in [8] was 54.8 µM; in assay [9], 66.5 µM; in [2] it was 23.5 µM; in assay [3], > 100 µM; in assay [10], > 100 µM; in assay [4] it was 65.6 µM. Besides, the TGI in [5] is 47.2 µM; in [6], > 100 µM.

With `CC(=O)c1ccc(Oc2c3ccccc3nc3ccccc23)cc1`, the TGI in assay [8] is 15.2 µM; in assay [9] it was 18 µM; in assay [2], 13.2 µM; in assay [3], 15.4 µM; in assay [10], 20.3 µM; in assay [4], 8.43 µM. The TGI came out at 9.61 µM in assay [5] and 20.5 µM in [6].

In the case of `O=C(ON=C1c2ccccc2C(Br)C(Br)c2ccccc21)c1ccccc1` (stereo unspecified), the TGI was 31.8 µM in [8]; 29.3 µM in assay [9]; 8.32 µM in assay [2]; 41.7 µM in assay [3]; 40.2 µM in assay [10]; 2.05 µM in [4]. Moreover, the TGI was determined as 23 µM in assay [5] and 28.6 µM in [6].

`Cc1nc(N)c(N2CCN(C#N)CC2)c(=O)[nH]1`: the TGI in assay [8], in assay [9], in assay [2], in [3], in [10] and in assay [4] was > 100 µM each time. Besides, the TGI in [5] and in assay [6] was > 100 µM throughout.

`CN(C)c1ccc(/C=C(\NC(=O)c2ccccc2)C(=O)NC(CC(=O)O)C(=O)O)cc1` (stereo unspecified): the TGI in [8], in [9], in assay [2], in assay [3], in [10] and in assay [4] was > 100 µM in each case. The TGI in [5] and in assay [6] was > 100 µM in each case.

For `O=C(CCc1cc(O)cc(O)c1)NCCc1cc(OCc2ccccc2)cc(OCc2ccccc2)c1`, the TGI in [8] is 33.5 µM; in [9], 39.3 µM; in assay [2], 15.3 µM; in assay [3] it was 70 µM; in assay [10] it was 23.6 µM; in assay [4] it was 50.8 µM. The TGI came out at 41 µM in assay [5] and 53.3 µM in [6].

As to `O=C(CC(NC(=O)C(F)(F)F)C(=O)O)OCc1ccccc1` (stereo unspecified), the TGI in assay [8], in assay [9], in [2], in assay [3], in assay [10] and in [4] was > 100 µM throughout. In addition, the TGI in [5] and in assay [6] was > 100 µM in each case.

On to `COc1ccc(CNc2cnc3ccc(N)cc3n2)cc1`, for which the TGI in assay [1], in assay [2], in [7], in [3], in assay [4] and in assay [5] was > 100 µM in each case. Further, in assay [6], the TGI is > 100 µM.

Take `Cc1c(C)n(-c2ccccc2)c2nc(S(C)=O)nc(S(C)=O)c12` (stereo unspecified): the TGI worked out at 27.5 µM in assay [8]; 8.62 µM in assay [9]; 20.2 µM in assay [2]; 25.9 µM in assay [3]; 19.7 µM in assay [10]; 3.88 µM in [4]. Moreover, the TGI came to 10.1 µM in [5] and 3.86 µM in assay [6].

Regarding `CN1CSC(=S)N(c2cccc(C(F)(F)F)c2)C1`, the TGI is > 100 µM in [8]; > 100 µM in [9]; 45.3 µM in [2]; 50.7 µM in assay [3]; 69.1 µM in assay [10]; > 100 µM in assay [4]. For the same compound, the results for the TGI in [5] and in assay [6] were 73.6 µM and > 100 µM, respectively.

`COC1OC(C)C(NC(=O)OCC(Cl)(Cl)Cl)C2OC(C)(C)OC12` (stereo unspecified): the TGI in assay [8], in assay [9], in assay [2], in assay [3], in [10] and in assay [4] was > 100 µM throughout. In addition, the TGI in [5] and in assay [6] was > 100 µM each time.

As to `Cc1ccc2c(c1C)C(=O)C1(Cc3cc4c(cc3C1=O)CCC4)C2` (stereo unspecified), the TGI in assay [8], in [9], in assay [2], in assay [3], in assay [10] and in assay [4] was > 100 µM throughout. The TGI in assay [5] and in assay [6] was > 100 µM each time.

Turning to `Cn1c2ccccc2c2ccc3c(c21)C(=O)c1ccc2c4ccccc4n(C)c2c1C3=O`, the TGI in assay [8], in assay [9], in [2], in [3], in assay [10] and in assay [4] was > 100 µM in each case. The TGI in [5] and in assay [6] was > 100 µM in each case.

Regarding `O=CC(I)=C(c1ccccc1)c1ccccc1`, the TGI in assay [8] is 32.7 µM; in [9], 34.9 µM; in assay [2], 29.1 µM; in [3], 42.3 µM; in assay [10] it was 29.3 µM; in assay [4], > 69.9 µM. The TGI in [5] turned out to be 28.9 µM; in assay [6] it was 19.9 µM.

In the case of `COc1ccc2c(c1)c1c(n2CCN2CCCCC2)-c2cccc(OC)c2CC1`, the TGI in assay [8] is > 100 µM; in assay [9] it was 47.2 µM; in assay [2], 24.7 µM; in [3], 38 µM; in assay [10], 35.6 µM; in [4], 27.3 µM. The TGI in [5] was 55.4 µM; in assay [6], 42.5 µM.

`Cc1c(N2CCOCC2)nc2ccc(Cl)cc2c1-c1ccccc1`: the TGI in assay [1], in assay [2], in assay [3], in assay [4], in [5] and in [6] was > 100 µM each time.

For the compound `O=c1c(F)cn2c(=O)n1CCCCCCCn1c(=O)c(F)cn(c1=O)CCCCCCC2`, the TGI in assay [8] is 12.4 µM; in [9] it was > 100 µM; in assay [2], > 100 µM; in [3] it was > 100 µM; in assay [10] it was > 100 µM; in [4], > 100 µM. For the same compound, the TGI in assay [5] and in [6] was > 100 µM in each case.

As for `CCOC1C=CC(=O)C(CO)O1` (stereo unspecified), the TGI in assay [8] worked out at 31.2 µM; in [9], 24.9 µM; in assay [2] it was 4.77 µM; in [3], 19.9 µM; in assay [10] it was 28.9 µM; in assay [4], 6.07 µM. Also, the TGI in assay [5] worked out at 14.2 µM; in assay [6], 29.6 µM.

On to `NCCN1CCCCCc2ccccc21`, for which the TGI in [8], in assay [9], in [2], in assay [3], in assay [10] and in assay [4] was > 10 µM in each case. In addition, the TGI in assay [5] and in assay [6] was > 10 µM each time.

With `Cc1ccc2cccc(-c3cccc4ccccc34)c2n1`, the TGI in assay [8] was > 100 µM; in assay [9] it was > 100 µM; in assay [2], 51.4 µM; in [3] it was > 100 µM; in assay [10], > 100 µM; in assay [4], 50 µM. For the same compound, the TGI in assay [5] and in assay [6] was > 100 µM in each case.

For `CC(=O)NNc1nc(C)c(C(=O)NNC(=O)C(=O)Nc2ccc([N+](=O)[O-])cc2[N+](=O)[O-])s1`, the TGI in assay [2] was > 100 µM; in assay [7], > 100 µM; in [11], > 100 µM; in assay [3] it was > 100 µM; in assay [4], 79.6 µM; in assay [6], > 100 µM.

For `CC(=O)Nc1nc(Cl)cc(NCC2(CO)CCC2)n1`, the TGI in [8], in assay [9], in [2], in [3], in assay [10] and in [4] was > 100 µM in each case. For the same compound, the TGI in assay [5] and in assay [6] was > 100 µM in each case.

Take `COC(=O)/C=C(/C=C1/C(C#N)=C(N)N(c2ccc(Cl)cc2)C1(C)/C(=C\C(=O)OC)C(=O)OC)C(=O)OC` (stereo unspecified): the TGI was 89.2 µM in [8]; 39.5 µM in [9]; 41.2 µM in assay [2]; 35.8 µM in assay [3]; 35 µM in assay [10]; > 100 µM in assay [4]. The TGI in assay [5] turned out to be 32.7 µM; in assay [6], 30.8 µM.

Consider `COc1ccc2nc(NC(=O)/C(C#N)=C/c3ccccc3)sc2c1`, for which the TGI is > 100 µM in [8]; > 100 µM in assay [9]; > 100 µM in assay [2]; > 100 µM in assay [3]; > 100 µM in assay [10]; 59.7 µM in [4]. Also, the TGI in assay [5] and in assay [6] was > 100 µM each time.

For `CCOC(=O)c1c(N2CCCC2)[nH]c(=O)c(C(c2ccc(OC)cc2)c2c(O)c(C(=O)OCC)c(N3CCCC3)[nH]c2=O)c1O`, the TGI in assay [8], in [9], in [2], in [3], in assay [10] and in assay [4] was > 100 µM each time. In addition, the TGI in [5] and in assay [6] was > 100 µM throughout.

Consider `COc1ccc(N=Nc2c(-c3c(OC)cc4occc4c3OC)[nH]c(=O)c(C#N)c2C)cc1`, for which the TGI in [8], in assay [9], in [2], in [3], in assay [10] and in assay [4] was > 100 µM each time. In addition, the TGI in assay [5] and in assay [6] was > 100 µM throughout.

As to `COc1ccc2ccc3oc(=O)c(C)cc3c2c1`, the TGI in assay [8], in [9], in assay [2], in [3], in [10] and in assay [4] was > 100 µM in each case. Also, the TGI in [5] and in assay [6] was > 100 µM throughout.

Take `O=C(/C=C/c1ccc(O)c(O)c1)OCCc1ccc2ccccc2c1`: the TGI in assay [8] was 24.3 µM; in assay [9], 18.7 µM; in [2], 13.1 µM; in assay [3], 23.3 µM; in assay [10] it was 20.5 µM; in assay [4], 23.8 µM. For the same compound, the TGI in [5] is 20.9 µM; in assay [6] it was 20.7 µM.

Turning to `CN(C)CCN(c1ccccn1)c1ccccn1`, the TGI in [8], in assay [9], in assay [2], in assay [3], in assay [10] and in assay [4] was > 100 µM each time. Further, the TGI in [5] and in assay [6] was > 100 µM each time.

(Values after PubChem BioAssay (NCI).)
